Data reported in US9988635B2, “Modulation of growth hormone receptor expression and insulin-like growth factor expression” (Antisense Therapeutics Limited, priority 2003, dated 2018).
In the oligonucleotide strings, read from the 5' end, every base follows the letter of its sugar. An asterisk marks phosphorothioate; unmarked linkages are phosphodiester. Other units and linkages are bracketed, terminal groups are in braces. A string of capitals states the bases alone. e = 2'-O-(2-methoxyethyl) (MOE); [5mC] = 5-methylcytosine; d = 2'-deoxy (DNA)

Each substance was assayed on mouse growth hormone receptor mRNA (assay: Inhibition of mouse growth hormone receptor mRNA levels in b.END cells, quantitative real-time PCR, incl. dose-response). Details: averages from three experiments.
Assay type: cell-based
Procedure: The mouse brain endothelial cell line b.END was obtained from Dr. Werner Risau at the Max Plank Instititute (Bad Nauheim, Germany). b.END cells were routinely cultured in DMEM, high glucose (Gibco/Life Technologies, Gaithersburg, Md.) supplemented with 10% fetal calf serum (Gibco/Life Technologies, Gaithersburg, Md.). Cells were routinely passaged by trypsinization and dilution when they reached 90% confluence. Cells were seeded into 96-well plates (Falcon-Primaria #3872) at a density of 3000 cells/well for use in RT-PCR analysis.
(§1) When cells reached 65-75% confluency, they were treated with oligonucleotide. For cells grown in 96-well plates, wells were washed once with 100 μL OPTI-MEM™-1 reduced-serum medium (Invitrogen Corporation, Carlsbad, Calif.) and then treated with 130 μL of OPTI-MEM™-1 containing 3.75 μg/mL LIPOFECTIN™ (Invitrogen Corporation, Carlsbad, Calif.) and the desired concentration of oligonucleotide. Cells are treated and data are obtained in triplicate. After 4-7 hours of treatment at 37° C., the medium was replaced with fresh medium. Cells were harvested 16-24 hours after oligonucleotide treatment.
(§2) Total RNA was isolated using an RNEASY 96™ kit and buffers purchased from Qiagen Inc. (Valencia, Calif.) following the manufacturer's recommended procedures. Briefly, for cells grown on 96-well plates, growth medium was removed from the cells and each well was washed with 200 μL cold PBS. 150 μL Buffer RLT was added to each well and the plate vigorously agitated for 20 seconds. 150 μL of 70% ethanol was then added to each well and the contents mixed by pipetting three times up and down. The samples were then transferred to the RNEASY 96™ well plate attached to a QIAVAC™ manifold fitted with a waste collection tray and attached to a vacuum source. Vacuum was applied for 1 minute. 500 μL of Buffer RW1 was added to each well of the RNEASY 96™ plate and incubated for 15 minutes and the vacuum was again applied for 1 minute. An additional 500 μL of Buffer RW1 was added to each well of the RNEASY 96™ plate and the vacuum was applied for 2 minutes. 1 mL of Buffer RPE was then added to each well of the RNEASY 96™ plate and the vacuum applied for a period of 90 seconds. The Buffer RPE wash was then repeated and the vacuum was applied for an additional 3 minutes. The plate was then removed from the QIAVAC™ manifold and blotted dry on paper towels. The plate was then re-attached to the QIAVAC™ manifold fitted with a collection tube rack containing 1.2 mL collection tubes. RNA was then eluted by pipetting 140 μL of RNAse free water into each well, incubating 1 minute, and then applying the vacuum for 3 minutes.
(§3) Quantitation of growth hormone receptor mRNA levels was accomplished by real-time quantitative PCR using the ABI PRISM™ 7600, 7700, or 7900 Sequence Detection System (PE-Applied Biosystems, Foster City, Calif.) according to manufacturer's instructions. This is a closed-tube, non-gel-based, fluorescence detection system which allows high-throughput quantitation of polymerase chain reaction (PCR) products in real-time. As opposed to standard PCR in which amplification products are quantitated after the PCR is completed, products in real-time quantitative PCR are quantitated as they accumulate. This is accomplished by including in the PCR reaction an oligonucleotide probe that anneals specifically between the forward and reverse PCR primers, and contains two fluorescent dyes. A reporter dye (e.g., FAM or JOE, obtained from either PE-Applied Biosystems, Foster City, Calif., Operon Technologies Inc., Alameda, Calif. or Integrated DNA Technologies Inc., Coralville, Iowa) is attached to the 5′ end of the probe and a quencher dye (e.g., TAMRA, obtained from either PE-Applied Biosystems, Foster City, Calif., Operon Technologies Inc., Alameda, Calif. or Integrated DNA Technologies Inc., Coralville, Iowa) is attached to the 3′ end of the probe. […]

| Substance | % INHIB of mouse growth hormone receptor mRNA levels [%] |
| --- | --- |
| 227494 (antisense e[5mC]*eA*eA*eA*eA*dG*d[5mC]*d[5mC]*dA*d[5mC]*d[5mC]*dT*dG*dA*dT*eT*eG*eT*eT*eT) [compound 227494] | 56 |
| 227496 (antisense eG*e[5mC]*eA*eT*eT*d[5mC]*dA*dA*dT*dT*dT*d[5mC]*d[5mC]*dT*dG*eA*eA*e[5mC]*eT*eG) [compound 227496] | 51 |
| 227472 (antisense eA*eG*eA*eG*e[5mC]*d[5mC]*dA*dA*dG*dG*dG*dA*dA*dG*d[5mC]*eA*eT*e[5mC]*eA*eT) [compound 227472] | 42 |
| 227443 (antisense eT*eG*e[5mC]*eT*eT*dG*dG*d[5mC]*dA*dG*d[5mC]*dT*d[5mC]*dG*dT*eG*eG*eG*eT*eT) [compound 227443] | 0 |
| 227503 (antisense eT*eA*e[5mC]*e[5mC]*eT*dG*dA*dG*dA*d[5mC]*d[5mC]*d[5mC]*d[5mC]*dA*dG*eT*eT*e[5mC]*eA*eT) [compound 227503] | 24 |
| 227508 (antisense eT*eT*e[5mC]*e[5mC]*eA*d[5mC]*dT*d[5mC]*dA*d[5mC]*d[5mC]*d[5mC]*d[5mC]*dA*dG*eT*eT*e[5mC]*eA*eT) [compound 227508] | 51 |
| 227511 (antisense e[5mC]*e[5mC]*eA*e[5mC]*eG*d[5mC]*dA*d[5mC]*d[5mC]*d[5mC]*dA*d[5mC]*dA*dA*dG*e[5mC]*eG*eG*eA*eT) [compound 227511] | 71 |
| 227485 (antisense e[5mC]*eG*eT*eG*eG*dT*dG*dT*dA*dG*dT*d[5mC]*dT*dG*dG*eG*eA*e[5mC]*eA*eG) [compound 227485] | 45 |
| 227509 (antisense eG*e[5mC]*eA*eG*eT*dT*d[5mC]*dT*dA*dT*d[5mC]*dA*dG*dA*dA*e[5mC]*eT*eT*eT*eG) [compound 227509] | 82 |
| 227457 (antisense eG*eA*eA*eT*eT*dA*dT*d[5mC]*d[5mC]*dA*dT*d[5mC]*d[5mC]*d[5mC]*dT*eT*e[5mC]*eA*eG*eA) [compound 227457] | 67 |
| 227519 (antisense eT*e[5mC]*eA*e[5mC]*eA*d[5mC]*d[5mC]*dT*dA*d[5mC]*d[5mC]*dT*dT*dT*dG*e[5mC]*eT*eG*e[5mC]*eT) [compound 227519] | 44 |
| 227476 (antisense eG*eT*eA*eA*eT*dT*dT*dT*d[5mC]*dT*dT*dG*dG*d[5mC]*dA*eG*eG*eG*e[5mC]*eG) [compound 227476] | 41 |
| 227471 (antisense eA*eG*eG*e[5mC]*eA*d[5mC]*dA*dA*dG*dA*dG*dA*dT*d[5mC]*dA*eG*e[5mC]*eT*eT*e[5mC]) [compound 227471] | 52 |
| 227512 (antisense eT*eA*eA*e[5mC]*e[5mC]*dT*dA*dT*dG*dG*dT*dG*dA*d[5mC]*dT*eA*eT*eG*eT*e[5mC]) [compound 227512] | 36 |
| 227456 (antisense eG*eT*e[5mC]*e[5mC]*eA*dG*dT*dT*dG*dA*dG*dG*d[5mC]*d[5mC]*dA*eA*eT*eG*eG*eG) [compound 227456] | 97 |
| 227516 (antisense eT*eT*eG*eG*e[5mC]*dT*dT*dT*d[5mC]*d[5mC]*d[5mC]*dT*dG*dG*dA*eG*eG*eT*eT*e[5mC]) [compound 227516] | 57 |

These substances were tested on human growth hormone receptor mRNA (assay: Inhibition of human growth hormone receptor mRNA levels in MCF7 cells, quantitative real-time PCR). Details: averages from three experiments.
Assay type: cell-based
Design: concentration or dose not given beside the values
Procedure: The human breast carcinoma cell line MCF-7 was obtained from the American Type Culture Collection (Manassas, Va.). MCF-7 cells were routinely cultured in DMEM low glucose (Gibco/Life Technologies, Gaithersburg, Md.) supplemented with 10% fetal calf serum (Gibco/Life Technologies, Gaithersburg, Md.). Cells were routinely passaged by trypsinization and dilution when they reached 90% confluence. Cells were seeded into 96-well plates (Falcon-Primaria #3872) at a density of 7000 cells/well for use in RT-PCR analysis.
as §1, §2
as §3, with “probe. When the probe and dyes are intact, reporter dye emission is quenched by the proximity of the 3′ quencher dye.” for “probe.”

| Substance | % INHIB of human growth hormone receptor mRNA levels [%] |
| --- | --- |
| 272353 (antisense eA*eT*eA*eA*eT*dG*dG*d[5mC]*dT*dT*dA*dT*dG*dT*dG*eG*e[5mC]*e[5mC]*eA*e[5mC]) [compound 272353] | 72 |
| 272358 (antisense eT*e[5mC]*eT*e[5mC]*e[5mC]*dA*dG*dA*dT*dA*dG*dA*dA*dT*d[5mC]*eT*eA*eA*eA*e[5mC]) [compound 272358] | 53 |
| 272354 (antisense eA*eG*eT*eT*eA*dT*dG*dT*dG*dA*d[5mC]*d[5mC]*d[5mC]*dT*dG*eA*eT*eT*eG*eA) [compound 272354] | 65 |
| 272322 (antisense e[5mC]*eT*eG*eG*e[5mC]*dT*d[5mC]*dA*dT*d[5mC]*dA*dA*dT*dA*dT*e[5mC]*eT*eA*eG*e[5mC]) [compound 272322] | 84 |
| 272361 (antisense eA*eT*eT*eT*eT*d[5mC]*d[5mC]*dT*dT*d[5mC]*d[5mC]*dT*dA*dG*dA*eA*eA*eA*eT*eA) [compound 272361] | 10 |
| 227480 (antisense eA*eT*eG*eT*eA*dA*dA*dT*dG*dT*d[5mC]*d[5mC]*dT*d[5mC]*dT*eT*eG*eG*eT*eT) [compound 227480] | 66 |
| 272336 (antisense e[5mC]*eA*eA*eT*e[5mC]*dA*d[5mC]*dT*dG*d[5mC]*dT*dA*d[5mC]*dT*dA*eA*eA*e[5mC]*eA*eG) [compound 272336] | 69 |
| 227475 (antisense e[5mC]*e[5mC]*eT*eG*e[5mC]*dT*dG*dG*dT*dG*dT*dA*dA*dT*dG*eT*e[5mC]*eG*e[5mC]*eT) [compound 227475] | 68 |
| 227489 (antisense eT*eG*eT*eT*e[5mC]*dA*dG*dT*dT*dG*dG*dT*d[5mC]*dT*dG*eT*eG*e[5mC]*eT*e[5mC]) [compound 227489] | 75 |
| 272310 (antisense eT*eT*eT*e[5mC]*eA*dT*d[5mC]*d[5mC]*dA*d[5mC]*dT*dG*dT*dA*d[5mC]*e[5mC]*eA*e[5mC]*e[5mC]*eA) [compound 272310] | 76 |
| 272332 (antisense e[5mC]*eT*e[5mC]*eT*eT*dT*dG*dT*d[5mC]*dA*dG*dG*d[5mC]*dA*dA*eG*eG*eG*e[5mC]*eA) [compound 272332] | 75 |
